In ChEMBL document CHEMBL1833932, “Design, synthesis and SAR of indazole and benzoisoxazole containing 4-azetidinyl-1-aryl-cyclohexanes as CCR2 antagonists” (Bioorg Med Chem Lett, 2011):
≈ marks a conversion by molar mass, not a printed value.

Key:
[1] = molecular target: C-C chemokine receptor type 2 (Homo sapiens, UniProt P41597); experiment: Displacement of [125I]-MCP1 from human CCR2 receptor in THP1 cells after 2 hrs by scintillation counting; format: cell-based, THP-1
[2] = molecular target: Voltage-gated inwardly rectifying potassium channel KCNH2 (Homo sapiens, UniProt Q12809)
Voltage-gated inwardly rectifying potassium channel KCNH2, sequence (Q12809 whole entry): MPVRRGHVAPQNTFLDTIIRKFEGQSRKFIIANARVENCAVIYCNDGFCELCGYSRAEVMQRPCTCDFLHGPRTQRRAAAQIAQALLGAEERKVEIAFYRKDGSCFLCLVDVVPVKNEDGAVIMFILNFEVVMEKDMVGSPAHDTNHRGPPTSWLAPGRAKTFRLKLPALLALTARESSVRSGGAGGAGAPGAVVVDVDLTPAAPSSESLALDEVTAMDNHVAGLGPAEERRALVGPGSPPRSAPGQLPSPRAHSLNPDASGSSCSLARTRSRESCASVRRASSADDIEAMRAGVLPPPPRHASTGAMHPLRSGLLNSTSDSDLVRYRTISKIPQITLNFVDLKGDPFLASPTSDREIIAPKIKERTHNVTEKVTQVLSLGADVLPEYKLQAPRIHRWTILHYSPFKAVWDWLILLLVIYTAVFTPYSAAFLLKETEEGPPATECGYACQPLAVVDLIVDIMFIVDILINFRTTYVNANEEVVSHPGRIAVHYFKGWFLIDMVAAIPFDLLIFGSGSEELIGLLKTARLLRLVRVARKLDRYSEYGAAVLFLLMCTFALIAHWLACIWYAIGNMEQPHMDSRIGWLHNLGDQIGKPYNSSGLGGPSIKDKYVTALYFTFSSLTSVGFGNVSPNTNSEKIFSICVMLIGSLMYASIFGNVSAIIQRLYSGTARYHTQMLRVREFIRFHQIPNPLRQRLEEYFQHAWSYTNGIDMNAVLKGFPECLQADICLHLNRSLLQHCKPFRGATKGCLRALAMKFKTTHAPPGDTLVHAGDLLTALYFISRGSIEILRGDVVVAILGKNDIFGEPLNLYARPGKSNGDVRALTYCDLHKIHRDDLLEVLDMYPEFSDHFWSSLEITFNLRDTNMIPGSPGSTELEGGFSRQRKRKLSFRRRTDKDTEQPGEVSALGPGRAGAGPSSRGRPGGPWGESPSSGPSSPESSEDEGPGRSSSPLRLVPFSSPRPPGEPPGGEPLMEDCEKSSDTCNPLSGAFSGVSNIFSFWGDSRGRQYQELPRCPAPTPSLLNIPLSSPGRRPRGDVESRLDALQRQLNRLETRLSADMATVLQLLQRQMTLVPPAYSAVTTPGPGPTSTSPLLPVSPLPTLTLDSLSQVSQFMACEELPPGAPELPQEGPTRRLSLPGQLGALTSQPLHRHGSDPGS
Description: Displacement of [3H]-astemizole from human ERG in HEK293 cells after 1 hrs by scintillation counting

[3] = molecular target: hERG (KCNH2) (Homo sapiens, UniProt Q12809); experiment: in vitro; conditions: HEK293 cells that express hERG
hERG (KCNH2), sequence (Q12809 whole entry): as above

[4] = Apparent permeability of the compound from basolateral to apical side in human Caco2 cell membrane; format: ADME, cell-based; conditions: Caco-2
[5] = Kinetic solubility of the compound at pH 2; format: physicochemical; conditions: buffer, read-out: Kinetic_solubility
[6] = Apparent permeability of the compound from apical to basolateral side in human Caco2 cell membrane; format: ADME, cell-based; conditions: Caco-2
[7] = Efflux ratio of permeability from basolateral to apical side over apical to basolateral side in human Caco2 cell membrane; format: ADME, cell-based; conditions: Caco-2

C-C chemokine receptor type 2, sequence (P41597 whole entry): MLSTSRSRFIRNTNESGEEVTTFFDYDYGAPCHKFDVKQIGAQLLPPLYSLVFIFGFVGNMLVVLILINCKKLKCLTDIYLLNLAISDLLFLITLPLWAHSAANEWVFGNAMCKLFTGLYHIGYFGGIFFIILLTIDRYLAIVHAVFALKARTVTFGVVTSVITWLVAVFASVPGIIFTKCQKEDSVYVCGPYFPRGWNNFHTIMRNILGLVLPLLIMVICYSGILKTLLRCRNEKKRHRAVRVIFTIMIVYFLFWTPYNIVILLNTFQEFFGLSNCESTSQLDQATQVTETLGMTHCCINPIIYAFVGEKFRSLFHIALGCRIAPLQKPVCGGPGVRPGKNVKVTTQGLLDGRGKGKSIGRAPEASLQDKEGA

## O=C(CNc1n[nH]c2ccc(C(F)(F)F)cc12)NC1CN([C@H]2CC[C@@H](n3ccccc3=O)CC2)C1
[1]
  IC50: 63 nM

## Cn1nc(NCC(=O)NC2CN([C@H]3CC[C@@H](C(N)=O)CC3)C2)c2cc(C(F)(F)F)ccc21
[2]
  IC50: 32000 nM
[1]
  IC50: 510 nM

## N[C@H]1CC[C@@H](N2CC(NC(=O)CNc3n[nH]c4ccc(C(F)(F)F)cc34)C2)CC1
[2]
  IC50: > 50000 nM
[1]
  IC50: > 25000 nM

## CS(=O)(=O)N[C@H]1CC[C@@H](N2CC(NC(=O)CNc3n[nH]c4ccc(C(F)(F)F)cc34)C2)CC1
[1]
  IC50: 2080 nM

## O=C(CNc1noc2ccc(C(F)(F)F)cc12)NC1CN([C@H]2CC[C@@H](c3ccc4c(c3)OCO4)CC2)C1
[2]
  IC50: 1900 nM
[1]
  IC50: 36 nM

## CCOC(=O)[C@H]1CC[C@@H](N2CC(NC(=O)CNc3n[nH]c4ccc(C(F)(F)F)cc34)C2)CC1
[2]
  IC50: 9100 nM
[1]
  IC50: 27 nM

## CCOC(=O)[C@H]1CC[C@@H](N2CC(NC(=O)CNc3nn(CC(F)(F)F)c4ccc(C(F)(F)F)cc34)C2)CC1
[2]
  IC50: 2500 nM
[1]
  IC50: 230 nM

## COc1ccc([C@]2(O)CC[C@H](N3CC(NC(=O)CNc4n[nH]c5ccc(C(F)(F)F)cc45)C3)CC2)cn1
[2]
  IC50: 32000 nM
[1]
  IC50: 16 nM
[3]
  inhibition at 5 min, 3 µM: 30%

## C=CCn1nc(NCC(=O)NC2CN([C@H]3CC[C@@H](C(=O)OCC)CC3)C2)c2cc(C(F)(F)F)ccc21
[1]
  IC50: 22 nM

## O=C(CNc1n[nH]c2ccc(C(F)(F)F)cc12)NC1CN([C@H]2CC[C@@H](c3ccccc3)CC2)C1 (stereo in doubt; 5)
[1]; thp-1
  IC50: 12 nM

## NC(=O)Cc1ccc([C@H]2CC[C@@H](N3CC(NC(=O)CNc4n[nH]c5ccc(C(F)(F)F)cc45)C3)CC2)cc1
[2]
  IC50: 9500 nM
[1]
  IC50: 12 nM

## O=C(CNc1nn(CCO)c2ccc(C(F)(F)F)cc12)NC1CN([C@H]2CC[C@@H](c3nccs3)CC2)C1
[1]
  IC50: 29 nM

## Cn1nc(NCC(=O)NC2CN([C@H]3CC[C@@H](C4CCCCC4)CC3)C2)c2cc(C(F)(F)F)ccc21
[1]
  IC50: 120 nM

## CCOC(=O)[C@H]1CC[C@@H](N2CC(NC(=O)CNc3nn(C4CCCC4)c4ccc(C(F)(F)F)cc34)C2)CC1
[2]
  IC50: 4100 nM
[1]
  IC50: 650 nM

## C#C[C@H]1CC[C@@H](N2CC(NC(=O)CNc3nn(C)c4ccc(C(F)(F)F)cc34)C2)CC1
[2]
  IC50: > 50000 nM
[1]
  IC50: 10000 nM

## Cn1nc(NCC(=O)NC2CN([C@H]3CC[C@@H](C#N)CC3)C2)c2cc(C(F)(F)F)ccc21
[1]
  IC50: 330 nM

## Cn1nc(NCC(=O)NC2CN([C@H]3CC[C@@H](CO)CC3)C2)c2cc(C(F)(F)F)ccc21
[1]
  IC50: 44 nM

## O=C(CNc1n[nH]c2ccc(C(F)(F)F)cc12)NC1CN([C@H]2CC[C@@H](O)CC2)C1
[2]
  IC50: 30000 nM
[1]
  IC50: 530 nM

## CCOC(=O)[C@H]1CC[C@@H](N2CC(NC(=O)CNc3noc4ccc(C(F)(F)F)cc34)C2)CC1
[1]
  IC50: 29 nM

## CCOC[C@H]1CC[C@@H](N2CC(NC(=O)CNc3nn(C)c4ccc(C(F)(F)F)cc34)C2)CC1
[2]
  IC50: 5600 nM
[1]
  IC50: 27 nM

## CCOC(=O)[C@H]1CC[C@@H](N2CC(NC(=O)CNc3nn(C(N)=O)c4ccc(C(F)(F)F)cc34)C2)CC1
[4]
  Papp B→A: 3.5 ×10⁻⁶ cm/s
[2]
  IC50: 20000 nM
[5]
  solubility kinetic: 8.9 µM (≈ 4.54 µg/mL)
[6]
  Papp A→B: 0.32 ×10⁻⁶ cm/s
[7]
  efflux ratio: 10.9
[1]
  IC50: 56 nM

## CC(C)(C)NC(=O)n1nc(NCC(=O)NC2CN([C@H]3CC[C@@H](c4ccc5c(c4)OCO5)CC3)C2)c2cc(C(F)(F)F)ccc21
[1]
  IC50: 55 nM

## Cn1nc(NCC(=O)NC2CN([C@H]3CC[C@@H](c4ncco4)CC3)C2)c2cc(C(F)(F)F)ccc21
[1]
  IC50: 480 nM

## CCOC(=O)[C@H]1CC[C@@H](N2CC(NC(=O)CNc3nn(C)c4ccc(C(F)(F)F)cc34)C2)CC1
[2]
  IC50: 8000 nM
[1]
  IC50: 13 nM

## CC(C)[C@H]1CC[C@@H](N2CC(NC(=O)CNc3n[nH]c4ccc(C(F)(F)F)cc34)C2)CC1
[2]
  IC50: 6200 nM
[1]
  IC50: 370 nM

## NC(=O)n1nc(NCC(=O)NC2CN([C@H]3CC[C@@H](c4ccc5c(c4)OCO5)CC3)C2)c2cc(C(F)(F)F)ccc21
[4]
  Papp B→A: 2.44 ×10⁻⁶ cm/s
[2]
  IC50: 12000 nM
[5]
  solubility kinetic: 3.5 µM (≈ 1.95 µg/mL)
[6]
  Papp A→B: 0.15 ×10⁻⁶ cm/s
[7]
  efflux ratio: 16.2
[1]
  IC50: 82 nM

## O=C(CNc1n[nH]c2ccc(C(F)(F)F)cc12)NC1CN([C@H]2CC[C@@H](c3ccccc3)CC2)C1 (stereo in doubt; 13a)
[2]
  IC50: 1200 nM
[1]
  IC50: 12 nM

## Cc1ccc([C@H]2CC[C@@H](N3CC(NC(=O)CNc4n[nH]c5ccc(C(F)(F)F)cc45)C3)CC2)cn1
[2]
  IC50: 27000 nM
[1]
  IC50: 6 nM
[3]
  inhibition at 5 min, 3 µM: 23%

## Cn1nc(NCC(=O)NC2CN([C@H]3CC[C@@H](C(=O)O)CC3)C2)c2cc(C(F)(F)F)ccc21
[2]
  IC50: 25000 nM
[1]
  IC50: 2600 nM

## O=C(CNc1n[nH]c2ccc(C(F)(F)F)cc12)NC1CN([C@H]2CC[C@@H](c3ccc4c(c3)OCO4)CC2)C1
[1]
  IC50: 6 nM

## Cn1nc(NCC(=O)NC2CN([C@H]3CC[C@@H](c4ccc5c(c4)OCO5)CC3)C2)c2cc(C(F)(F)F)ccc21
[1]
  IC50: 13 nM

## O=C(CSc1n[nH]c2ccc(C(F)(F)F)cc12)NC1CN([C@H]2CC[C@@H](c3ccccc3)CC2)C1
[1]
  IC50: 290 nM

## CCOC(=O)[C@H]1CC[C@@H](N2CC(NC(=O)CNc3nn(S(C)(=O)=O)c4ccc(C(F)(F)F)cc34)C2)CC1
[2]
  IC50: 25000 nM
[1]
  IC50: 920 nM

## O=C(COc1n[nH]c2ccc(C(F)(F)F)cc12)NC1CN([C@H]2CC[C@@H](c3ccccc3)CC2)C1
[1]
  IC50: 510 nM

## O=C(Cn1[nH]c2ccc(C(F)(F)F)cc2c1=O)NC1CN([C@H]2CC[C@@H](c3ccccc3)CC2)C1
[1]
  IC50: 5400 nM
